Test results from US20050197406A1, “Method of treatment of lung cancer” (priority 1999, published 2005).
Structures can show the parent of a compound that is named as a salt.

Columns and labels:
[1] = test system: A549 human lung cancer cells; experiment: A549 human lung cancer xenograft model, β-lapachone alone or with gemcitabine; format: in vivo; details: for toxicity: female, athymic nude (Ncr), mouse, in vivo, ip; for retardation of tumor growth, monotherapy: β-lapachone 60 mg/kg or gemcitabine 120 mg/kg alone, e.g. days 24 and 27
Experimental: Mice receive a total of eight treatments. Mean tumor volume is analyzed; data points in FIG. 4 represent the arithmetic mean +/−SEM of five tumors.

[2] = test system: 60 cancer cell lines; experiment: NCI in vitro screen of 60 cancer cell lines (sulforhodamine B assay); format: cell-based; details: Homo sapiens; mean across all cells of NCI60; read-out: LC50 (log 10 molar concentration causing 50% lethality), mean across all cells (converted)
Experimental: The NCI assays are performed under standardized conditions not designed to mimic the conditions of dosing and use the sulforhodamine B assay as the endpoint. […] When compared to many FDA approved chemotherapeutic agents for common cancer types with publicly available data, none of the compared approved drugs exceed the mean of β-lapachone across all cells and only mitoxantrone equals it. FIG. 2.

[3] = test system: A549 human lung cancer cells; format: in vivo; details: 60 mg/kg intraperitoneally every three days, 8 treatments
Experimental: The animals are randomized into three groups of seven animals per group. […] Mean tumor volume is then analyzed.

[4] = test system: normal cells; experiment: In vitro experiments using cell lines of various tissue origins (toxicity to normal cells); format: cell-based
[5] = test system: 60 cancer cell lines; details: FDA approved chemotherapeutic agents, publicly available data; cited from earlier work
[6] = ip every three days, eight treatments

Structure (SMILES) | toxicity [1] | retardation of tumor growth, monotherapy [1, 6] | CC50 [2] [µM] | reduction of mean tumor volume [3] | retardation of tumor growth, 60 mg/kg compared with 40 mg/kg ([1]; β-lapachone in 40% HPBCD, ip every three days, eight treatments) | toxicity to normal cells [4] | mean LC50 across all cells compared with that of β-lapachone [5]
Nc1ccn([C@@H]2O[C@H](CO)[C@@H](O)C2(F)F)c(=O)n1 [gemcitabine, 2′-deoxy-2′,2′-difluorocytidine monohydrochloride (β-isomer), reference compound] | No significant toxicity | retarded tumor growth to a similar extent |  |  |  |  | 
CC1(C)CCC2=C(O1)c1ccccc1C(=O)C2=O [β-lapachone, 3,4-dihydro-2,2-dimethyl-2H-naphtho[1,2-b]pyran-5,6-dione] | No significant toxicity | retarded tumor growth to a similar extent | 8.51 | approximately 50% | more effective at retarding tumor growth | relatively non-toxic to normal cells | 
O=C1c2c(O)ccc(O)c2C(=O)c2c(NCCNCCO)ccc(NCCNCCO)c21 [mitoxantrone] |  |  |  |  |  |  | equals it
